According to PMC5538625, “Perception of root‐active CLE peptides requires CORYNE function in the phloem vasculature” (EMBO Reports, 2017):
Where no end group is shown, it is not given here.

Key:
[1] = target: T1, PXY extracellular domain (30–647) (Arabidopsis thaliana, UniProt Q9FII5); test: ITC of purified PXY extracellular domain vs. CLE41/44; conditions: binding affinity (range), isolated PXY ectodomain; range joins own value (Fig EV1B) and ref 25
T1 construct: PXY/TDR (30–647); azurocidin signal peptide (N); made in house; host or cells: Spodoptera frugiperda Sf9 insect cells (baculovirus, secreted)
T1 sequence (Q9FII5 30-647): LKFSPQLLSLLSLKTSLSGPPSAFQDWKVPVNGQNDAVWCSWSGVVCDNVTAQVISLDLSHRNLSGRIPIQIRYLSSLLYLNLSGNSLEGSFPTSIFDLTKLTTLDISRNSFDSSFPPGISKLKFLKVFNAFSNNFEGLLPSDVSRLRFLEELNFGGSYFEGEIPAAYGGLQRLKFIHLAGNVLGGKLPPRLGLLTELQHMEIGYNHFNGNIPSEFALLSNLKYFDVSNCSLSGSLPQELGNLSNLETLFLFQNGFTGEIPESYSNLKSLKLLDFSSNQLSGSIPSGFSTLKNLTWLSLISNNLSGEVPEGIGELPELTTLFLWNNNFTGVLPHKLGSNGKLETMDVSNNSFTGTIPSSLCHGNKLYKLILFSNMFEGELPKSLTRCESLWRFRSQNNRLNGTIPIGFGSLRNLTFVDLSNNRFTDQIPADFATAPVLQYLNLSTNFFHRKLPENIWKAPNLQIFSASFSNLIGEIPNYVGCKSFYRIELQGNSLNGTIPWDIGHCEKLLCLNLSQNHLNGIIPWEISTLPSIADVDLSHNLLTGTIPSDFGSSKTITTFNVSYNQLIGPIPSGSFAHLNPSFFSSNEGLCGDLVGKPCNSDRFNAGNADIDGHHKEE

[2] = tested on: crn seedlings expressing CRN-CITRINE under control of the BAM3 promoter; test: Root growth, BAM3::CRN-CITRINE in crn (protophloem-specific CRN); format: in vivo, Arabidopsis thaliana; conditions: 50 nM peptide, 7-day-old seedlings
Description: Figure 3 Protophloem‐specific CRN action in the root meristem • A Expression pattern of BAM3, CLV2, and CRN‐CITRINE fusion proteins (green fluorescence) under control of their native promoters (blue fluorescence: calcofluor white cell wall staining) (confocal microscopy). Asterisks mark developing protophloem sieve element strands. • B, C Expression pattern of CRN‐CITRINE fusion protein under control of the BAM3 promoter in Col‐0 (B) or crn (C) background. Arrowhead in (C) highlights plasma membrane‐localized CRN. • D Representative 7‐day‐old crn seedlings expressing CRN‐CITRINE fusion protein under control of the BAM3 promoter grown on mock or CLE45. • E Primary root length of 7‐day‐old seedlings of indicated genotypes, grown on mock or 50 nM of selected CLE peptides. Differences as compared to ^a: Col‐0 or ^b: crn are not statistically significant unless indicated (Student's t‐test); *P < 0.05; **P < 0.01; ***P < 0.001; mean ± s.e.m. • F Expression of nuclear localized, fluorescent VENUS protein under control of the CVP2 promoter (which specifically marks developing protophloem sieve elements), 24 h after transfer from standard media to 50 nM of selected CLE peptides. Arrowheads indicate the cells closest to the tip in which CVP2 expression was still detectable. […]

[3] = tested on: Arabidopsis Col-0 seedlings (primary root); test: Root growth assay, wild type (Col-0); format: in vivo, Arabidopsis thaliana; conditions: 50 nM peptide, 9-day-old seedlings, primary root length, n ≥ 12
Method: Plant tissue culture, plant transformation, and common molecular biology procedures such as genomic DNA isolation, genotyping, sequencing, and peptide or inhibitor treatments were performed according to standard procedures as previously described 9, 19, 44, 65.
All mutant and transgenic lines were in the Arabidopsis Columbia‐0 (Col‐0) background. The following previously described mutant alleles were used throughout: brx‐2, bam3‐2, brx‐2 bam3, clv2‐1, serk1‐1 and serk1‐3, serk2‐1, serk3‐1, serk4‐1, serk5‐1 9, 47, 59, 66, 67, 68. The crn loss‐of‐function mutant allele (crn‐10) carries a single nucleotide insertion in front of the 7th codon, which leads to a frameshift and three subsequent premature stop codons after amino acid 10 52.

Sequence | Kd [1] [nM] | sensitivity after protophloem-specific CRN expression in crn [2] | impact on root growth [3]
HEVPSGPNPISN [CLE41/44] | 10 to 30 |  | 
RKVPRGPDPIHN [CLE26, CLE26: …] |  | restored sensitivity | significant, reproducible impact on root growth
